From patent US9249125B2, “Pyrazole derivatives as p38 MAP inhibitors” (RESPIVERT LIMITED, priority 2012, dated 2016)
Each block holds one molecule with its values, some of them ahead of it.

How the values were obtained:
GSK3α = GSK3α (Homo sapiens (Human), UniProt P49840); experiment: GSK 3α enzyme inhibition (FRET, Z-LYTE); assay type: biochemical
Procedure, shortened: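 GSK3α (500 ng/mL stock) was preincubated 2 hr at RT with compound (4 to 0.004 μg/mL stocks), then FRET peptide (8 μM stock) and ATP (40 μM stock) added for 1 hr. Protease development for 1 hr cleaved unphosphorylated peptide; coumarin/fluorescein emission ratio reported phosphorylation.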

RSV A2 = experiment: RSV induced F-protein expression in primary bronchial epithelial cells; assay type: cell-based, respiratory syncytical virus; conditions: for RSV induced F-protein in HBECs % Inhibition Observed: screened at concentrations up to 0.04 μg/mL; for IC50: human respiratory syncytial virus, Primary bronchial epithelial cell, read-out: RSV induced F-protein in HBECs IC50
Method: Normal human bronchial epithelial cells (NHBEC) grown in 96 well plates are infected with RSV A2 (Strain A2, HPA, Salisbury, UK) at an MOI of 0.001 in the LHC8 Media:RPMI-1640 (50:50) containing 15 mM magnesium chloride and incubated for 1 hr at 37° C. for adsorption. The cells are then washed with PBS (3×200 μL), fresh media (200 μL) is added and incubation continued for 4 days. Where appropriate, cells are pre-incubated with the compound or DMSO for 2 hr, and then added again after washout of the virus.
The cells are fixed with 4% formaldehyde in PBS solution (50 μL) for 20 min, washed with WB (3×200 μL), (washing buffer, PBS including 0.5% BSA and 0.05% Tween-20) and incubated with blocking solution (5% condensed milk in PBS) for 1 hr. Cells are then washed with WB (3×200 μL) and incubated for 1 hr at RT with anti-RSV (2F7) F-fusion protein antibody (40 μL) (mouse monoclonal, lot 798760, Cat. No. ab43812, Abcam) in 5% BSA in PBS-tween. After washing, cells are incubated with an HRP-conjugated secondary antibody solution (50 μL) in 5% BSA in PBS-Tween (lot 00053170, Cat. No. P0447, Dako) and then TMB substrate (50 μL) (substrate reagent pack, lot 269472, Cat. No. DY999, R&D Systems, Inc.) was added. This reaction is stopped by the addition of 2N H2SO4 (50 μL) and the resultant signal is determined colorimetrically (OD: 450 nm with a reference wavelength of 655 nm) in a microplate reader (Varioskan® Flash, ThermoFisher Scientific).
Cells are then washed and a 2.5% crystal violet solution (50 μL) (lot 8656, Cat. No. PL7000, Pro-Lab Diagnostics) is applied for 30 min. After washing with WB, 1% SDS in distilled water (100 μL) is added to each well, and plates are shaken lightly on the shaker for 1 hr prior to reading the absorbance at 595 nm. The measured OD450-655 readings are corrected to the cell number by dividing the OD450-655 by the OD595 readings. The percentage inhibition for each well is calculated and the IC50 value is calculated from the concentration-response curve generated from the serial dilutions of compound.

HRV16 = HRV16 induced CPE in MRC5 cells; assay type: cell-based, human rhinovirus; conditions: for IC50: Human rhinovirus sp., HRV16, MRC5, read-out: HRV induced CPE in MRC5 Cells IC50; for HRV induced CPE in MRC5 Cells % Inhibition Observed: screened at concentrations up to 0.32 ng/mL
Method: The supernatants are aspirated, and then fresh media added followed by incubation for 4 days. Where appropriate, cells are pre-incubated with compound or DMSO for 2 hr, and the compounds and DMSO added again after washout of the virus.
Supernatants are aspirated and incubated with methylene blue solution (100 μL, 2% formaldehyde, 10% methanol and 0.175% Methylene Blue) for 2 hr at RT. […] The percentage inhibition for each well is calculated. The IC50 value is calculated from the concentration-response curve generated by the serial dilutions of the test compounds.

[1] = tested on: LPS-induced airways neutrophilia in mice; experiment: LPS-induced neutrophil accumulation in mice; assay type: in vivo; conditions: Test Substance at 0.2 mg/mL, intra tracheal, dosed 8 hr pre-LPS challenge
PBMC cells = experiment: Cell mitosis assay; assay type: cell-based, human
Method: Peripheral blood mononucleocytes (PBMCs) from healthy subjects are separated from whole blood (Quintiles, London, UK) using a density gradient (Histopaque-1077, Sigma-Aldrich, Poole, UK). The PBMCs (3 million cells per sample) are subsequently treated with 2% PHA (Sigma-Aldrich, Poole, UK) for 48 hr, followed by a 20 hr exposure to varying concentrations of test compounds. At 2 hr before collection, PBMCs are treated with demecolcine (0.1 μg/mL) (Invitrogen, Paisley, UK,) to arrest cells in metaphase. To observe mitotic cells, PBMCs are permeabilised and fixed by adding Intraprep (50 μL) (Beckman Coulter, France), and stained with anti-phospho-histone 3 (0.26 ng/L) (#9701; Cell Signalling, Danvers, Mass.) and propidium iodide (1 mg/mL) (Sigma-Aldrich, Poole, UK,) as previously described (Muehlbauer P. A. and Schuler M. J., Mutation Research, 2003, 537:117-130). Fluorescence is observed using an ATTUNE flow cytometer (Invitrogen, Paisley, UK), gating for lymphocytes.

cSrc = cSrc (Homo sapiens (Human), UniProt P12931); experiment: Enzyme binding assay (Kinomescan) cSrc; conditions: read-out: % Inhibition for kinase binding at 500 nM cSrc
Method: These assays were conducted by DiscoverX (formerly Ambit; San Diego, Calif.). The percentage inhibition produced by incubation with a test compound is calculated relative to the non-inhibited control.

GSK3α, sequence (P49840 whole entry): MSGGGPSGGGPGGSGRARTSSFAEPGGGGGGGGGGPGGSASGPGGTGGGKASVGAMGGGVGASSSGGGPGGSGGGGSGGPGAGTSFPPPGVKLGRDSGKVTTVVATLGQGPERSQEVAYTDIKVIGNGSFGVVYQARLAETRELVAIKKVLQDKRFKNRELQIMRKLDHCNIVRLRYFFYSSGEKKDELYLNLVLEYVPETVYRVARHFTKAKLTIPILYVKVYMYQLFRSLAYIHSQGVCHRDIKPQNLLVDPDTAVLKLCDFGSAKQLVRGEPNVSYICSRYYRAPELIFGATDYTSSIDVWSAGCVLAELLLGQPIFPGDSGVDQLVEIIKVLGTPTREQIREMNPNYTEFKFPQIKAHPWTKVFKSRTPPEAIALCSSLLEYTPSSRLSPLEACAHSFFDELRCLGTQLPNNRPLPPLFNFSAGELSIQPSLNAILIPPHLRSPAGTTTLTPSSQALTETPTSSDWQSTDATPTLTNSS
cSrc, sequence (P12931 whole entry, looked up): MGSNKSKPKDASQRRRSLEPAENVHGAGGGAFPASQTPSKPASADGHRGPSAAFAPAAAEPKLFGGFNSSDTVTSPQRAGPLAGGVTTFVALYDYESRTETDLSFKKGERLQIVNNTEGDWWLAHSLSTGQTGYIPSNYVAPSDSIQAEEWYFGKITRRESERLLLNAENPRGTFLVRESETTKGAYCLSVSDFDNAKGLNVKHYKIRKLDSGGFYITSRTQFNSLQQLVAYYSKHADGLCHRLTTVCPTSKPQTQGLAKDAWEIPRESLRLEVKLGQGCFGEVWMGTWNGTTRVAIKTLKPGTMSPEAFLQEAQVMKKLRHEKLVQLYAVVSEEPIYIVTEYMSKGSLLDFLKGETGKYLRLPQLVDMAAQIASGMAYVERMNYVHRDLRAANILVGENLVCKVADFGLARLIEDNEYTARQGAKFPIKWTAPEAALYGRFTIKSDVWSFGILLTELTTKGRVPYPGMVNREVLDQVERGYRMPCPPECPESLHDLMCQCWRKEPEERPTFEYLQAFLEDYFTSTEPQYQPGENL

SMILES: Cc1ccc(-n2nc(C(C)(C)C)cc2NC(=O)Nc2ccc(Oc3ccnc(Nc4ccc5c(ccn5C)c4)n3)c3ccccc23)cc1 [Example 18, 1-(3-(tert-butyl)-1-(p-tolyl)-1H-pyrazol-5-yl)-3-(4-((2-((1-methyl-1H-indol-5-yl)amino)pyrimidin-4-yl)oxy)naphthalen-1-yl)urea]
IC50 (GSK3α): 7.08 µM
RSV induced F-protein in HBECs % Inhibition Observed (RSV A2): 56%

IC50 (GSK3α): > 13.3 µM
SMILES: Cc1cc(Nc2nccc(Oc3ccc(NC(=O)Nc4cc(C(C)(C)C)nn4-c4cccc(OCCN5CCOCC5)c4)c4ccccc34)n2)cc2cn[nH]c12 [Example 56, 1-(3-(tert-butyl)-1-(3-(2-morpholinoethoxy)phenyl)-1H-pyrazol-5-yl)-3-(4-((2-((7-methyl-1H-indazol-5-yl)amino)pyrimidin-4-yl)oxy)naphthalen-1-yl)urea]
IC50 (HRV16): 0.0067 µM
% Inhibition of neutrophil accumulation in BAL [1]: 38%
Neutrophil numbers in BAL (+/−SEM) [1]: 10.2 ± 1.9 ×10^5/mL

SMILES: Cc1ccc(-n2nc(C(C)(C)C)cc2NC(=O)Nc2ccc(Oc3ccnc(Nc4ccc5ncsc5c4)n3)c3ccccc23)cc1 [Example 35, 1-(4-((2-(benzo[d]thiazol-6-ylamino)pyrimidin-4-yl)oxy)naphthalen-1-yl)-3-(3-(tert-butyl)-1-(p-tolyl)-1H-pyrazol-5-yl)urea]
HRV induced CPE in MRC5 Cells % Inhibition Observed (HRV16): 100%
IC50 (GSK3α): > 15.6 µM
RSV induced F-protein in HBECs % Inhibition Observed (RSV A2): 71%

SMILES: COc1ccc(-n2nc(C(C)(C)C)cc2NC(=O)Nc2ccc(Oc3ccnc(Nc4ccc5[nH]ncc5c4)n3)c3ccccc23)cc1 [Example 40, 1-(4-((2-((1H-indazol-5-yl)amino)pyrimidin-4-yl)oxy)naphthalen-1-yl)-3-(3-(tert-butyl)-1-(4-methoxyphenyl)-1H-pyrazol-5-yl)urea]
IC50 (GSK3α): > 15.6 µM
IC50 (RSV A2): 0.0048 µM
Mitosis Assay % inhibition in PBMC cells at 5 μg/mL (PBMC cells): 30.5%

IC50 (GSK3α): 2.78 µM
Mitosis Assay % inhibition in PBMC cells at 5 μg/mL (PBMC cells): 26.7%
SMILES: Cc1cc(Nc2nccc(Oc3ccc(NC(=O)Nc4cc(C(C)(C)C)nn4-c4ccc(=O)n(CCN5CCOCC5)c4)c4ccccc34)n2)cc2cn[nH]c12 [Example 89, 1-(3-(tert-butyl)-1-(1-(2-morpholinoethyl)-6-oxo-1,6-dihydropyridin-3-yl)-1H-pyrazol-5-yl)-3-(4-((2-((7-methyl-1H-indazol-5-yl)amino)pyrimidin-4-yl)oxy)naphthalen-1-yl)urea]
IC50 (HRV16): 0.0096 µM

SMILES: Cc1ccc(-n2nc(C(C)(C)C)cc2NC(=O)Nc2ccc(Oc3ccnc(Nc4cccc5cc[nH]c45)n3)c3ccccc23)cc1 [Example 17]
IC50 (GSK3α): > 16.1 µM
RSV induced F-protein in HBECs % Inhibition Observed (RSV A2): 65%

SMILES: Cc1ccc(-n2nc(C(C)(C)C)cc2NC(=O)Nc2ccc(Oc3ccnc(Nc4ccc5ncn(C)c5c4)n3)c3ccccc23)cc1 [Example 31, 1-(3-(tert-butyl)-1-(p-tolyl)-1H-pyrazol-5-yl)-3-(4-((2-((1-methyl-1H-benzo[d]imidazol-6-yl)amino)pyrimidin-4-yl)oxy)naphthalen-1-yl)urea]
IC50 (GSK3α): 1.61 µM
RSV induced F-protein in HBECs % Inhibition Observed (RSV A2): 73%

inhibition at 0.5 µM (cSrc): 100%
IC50 (GSK3α): 3.89 µM
Mitosis Assay % inhibition in PBMC cells at 5 μg/mL (PBMC cells): 58.6%
SMILES: CC(C)(C)c1cc(NC(=O)Nc2ccc(Oc3ccnc(Nc4ccc5[nH]ncc5c4)n3)c3ccccc23)n(-c2ccc(OCCN3CCOCC3)cc2)n1 [Example 12, 1-(4-((2-((1H-Indazol-5-yl)amino)pyrimidin-4-yl)oxy)naphthalen-1-yl)-3-(3-(tert-butyl)-1-(4-(2-morpholinoethoxy)phenyl)-1H-pyrazol-5-yl)urea]
HRV induced CPE in MRC5 Cells % Inhibition Observed (HRV16): 92%
% Inhibition of neutrophil accumulation in BAL [1]: 46%
Neutrophil numbers in BAL (+/−SEM) [1]: 7.6 ± 1.5 ×10^5/mL

SMILES: Cc1ccc(-n2nc(C(C)(C)C)cc2NC(=O)Nc2ccc(Oc3ccnc(Nc4ccc5[nH]ncc5c4)n3)c3ccccc23)cc1 [Example 22, 1-(4-((2-((1H-indazol-5-yl)amino)pyrimidin-4-yl)oxy)naphthalen-1-yl)-3-(3-(tert-butyl)-1-(p-tolyl)-1H-pyrazol-5-yl)urea]
IC50 (GSK3α): > 16 µM
IC50 (RSV A2): 0.0046 µM
Mitosis Assay % inhibition in PBMC cells at 5 μg/mL (PBMC cells): 52.7%
% Inhibition of neutrophil accumulation in BAL [1]: 57%
Neutrophil numbers in BAL (+/−SEM) [1]: 7.0 ± 1.2 ×10^5/mL

SMILES: Cc1ccc(-n2nc(C(C)(C)C)cc2NC(=O)Nc2ccc(Oc3ccnc(Nc4ccc5c(c4)ncn5C)n3)c3ccccc23)cc1 [Example 4, 1-(3-(tert-Butyl)-1-(p-tolyl)-1H-pyrazol-5-yl)-3-(4-((2-((1-methyl-1H-benzo[d]imidazol-5-yl)amino)pyrimidin-4-yl)oxy)naphthalen-1-yl)urea]
IC50 (GSK3α): 1.37 µM
RSV induced F-protein in HBECs % Inhibition Observed (RSV A2): 96%

SMILES: Cc1ccc(-n2nc(C(C)(C)C)cc2NC(=O)Nc2ccc(Oc3ccnc(Nc4ccc5cn[nH]c5c4)n3)c3ccccc23)cc1 [Example 24, 1-(4-((2-((1H-indazol-6-yl)amino)pyrimidin-4-yl)oxy)naphthalen-1-yl)-3-(3-(tert-butyl)-1-(p-tolyl)-1H-pyrazol-5-yl)urea]
IC50 (GSK3α): 2.18 µM
RSV induced F-protein in HBECs % Inhibition Observed (RSV A2): 45%

SMILES: Cc1ccc(-n2nc(C(C)(C)C)cc2NC(=O)Nc2ccc(Oc3ccnc(Nc4ccc5[nH]cnc5c4)n3)c3ccccc23)cc1 [Example 30, 1-(4-((2-((1H-benzo[d]imidazol-5-yl)amino)pyrimidin-4-yl)oxy)naphthalen-1-yl)-3-(3-(tert-butyl)-1-(p-tolyl)-1H-pyrazol-5-yl)urea]
IC50 (GSK3α): 0.301 µM
RSV induced F-protein in HBECs % Inhibition Observed (RSV A2): 57%

IC50 (GSK3α): 12.5 µM
Mitosis Assay % inhibition in PBMC cells at 5 μg/mL (PBMC cells): 70.7%
SMILES: Cc1ccc(-n2nc(C(C)(C)C)cc2NC(=O)Nc2ccc(Oc3cc(Nc4ccc5[nH]ncc5c4)ncn3)c3ccccc23)cc1 [Example 23, 1-(4-((6-((1H-indazol-5-yl)amino)pyrimidin-4-yl)oxy)naphthalen-1-yl)-3-(3-(tert-butyl)-1-(p-tolyl)-1H-pyrazol-5-yl)urea]
IC50 (HRV16): 0.003 µM

SMILES: Cc1ccc(-n2nc(C(C)(C)C)cc2NC(=O)Nc2ccc(Oc3ccnc(Nc4ccc5scnc5c4)n3)c3ccccc23)cc1 [Example 34, 1-(4-((2-(benzo[d]thiazol-5-ylamino)pyrimidin-4-yl)oxy)naphthalen-1-yl)-3-(3-(tert-butyl)-1-(p-tolyl)-1H-pyrazol-5-yl)urea]
IC50 (GSK3α): 1.62 µM
RSV induced F-protein in HBECs % Inhibition Observed (RSV A2): 74%
